The nature of assay [1]: Neutralization of LPS in vitro (TAL / kinetic turbidimetric limulus test). In kind it is biochemical. Particulars: for neutralizing activity with LPS: 1, 2 and 4 μg/ml with equal volume of LPS (2.0 ng/ml), 30 min, p<0.05 or p<0.01, dose-dependent; for IC50: LPS 2 ng/ml, 0.5-128 μM, read-out: Half inhibitory concentration (IC50) on LPS. The method, then:
2.3.1 Methods: CL-4b was dissolved into LPS-free water to make 8 μg/ml solution, and incubated with equal volume of LPS (1 ng/mL) at 37° C. for 30 min. Subsequently, 100 μl mixed solution of CL-4b and LPS was added with equal volume of the quantitative TAL reagents dissolved in LPS-free water, gently shaked to mix the contents, and reacted at 37° C. for 60 min in kinetic tube reader. The agglutination of TAL reagent induced by the existence of non-neutralized LPS was measured. The mixture of LPS and equal volume of LPS-free water act as positive control. Each group contained three repeated tubes. The result was expressed in EU/ml, the endotoxin unit of LPS. Operation was performed according to the manufacturer's instructions of EDS-99 Bacterial Endotoxin Detecting system.
4.1 Methods: KA and KB (1, 2 and 4 μg/ml) were separately mixed with equal volume of LPS (2.0 ng/ml) and pre-incubated at 37 for 30 min; LPS control group was added with equal volume of nonpyrogenic water; LPS value was detected by kinetic turbidimetric limulus test after incubation; detection of each concentration was repeated three times; LPS content was expressed by means of mean±standard deviation; operation was performed according to the manufacturer's instructions of EDS-99 Bacterial Endotoxin Detecting system.
11.1 Methods: KB and PMB were separately diluted with LPS-free water to make solutions of 0.5, 1, 2, 4, 8, 16, 32, 64 and 128 μM; according to the methods in embodiment 4, above solutions were separately mixed with equal volume of LPS (2 ng/ml), and neutralizing activity was assayed.

A further assay concerns RAW264.7 cells. In words: Release of TNF-α and IL-6 in RAW264.7 cells induced by LPS and CpG DNA (ELISA). In kind it is cell-based, murine. The settings on record: for release of TNF-α induced by CpG DNA / release of TNF-α induced by LPS: 0, 50 and 100 ng/ml, 4 h, p<0.01. The method, then:
6.1 Methods: RAW264.7 cells were diluted to 1×10^6/ml in DMEM supplemented with 10% (v/v) NCS, added into 96-well plates (200 μl per well), and cultured at 37° C. in a 5% CO2 humidified incubator for 4 h until cells adhere to the wall; culture medium were replaced with fresh culture medium, added with KA and KB (final concentrations of 0, 50 and 100 ng/ml), and added with LPS (final concentration of 100 ng/ml) and CpG DNA (final concentration of 10 μg/ml); at the same time, medium group without any reagent was established; subsequently, RAW264.7 cells were incubated for 4 h; and the supernatant was collected for further detection; detection of the TNF-α concentration was performed according to the manufacturer's instructions of ELISA kit. Result was expressed by means of mean±standard deviation.
12.1 Methods: According to the method in embodiment 6, KB was dissolved in DMEM supplemented with 10% (v/v) NCS, subsequently transferred into Culture medium of RAW264.7 cells to achieved final concentrations of 100 and 200 μM, added with LPS (final concentration of 100 ng/ml) and CpG DNA (final concentration of 10 μg/ml), incubated for 24 h, and then collected supernatant; the concentration of TNF-α and IL-6 of each group was detected according to the manufacturer's instructions of ELISA kit; result was expressed by means of mean±standard deviation.
13.1 Methods: According to the method in embodiment 6, KB and PMB were separately dissolved in DMEM supplemented with 10% (v/v) NCS, subsequently transferred into culture medium of RAW264.7 cells to achieved final concentrations of 50, 100 and 200 μM, and then added with LPS (final concentration of 100 ng/ml) and CpG DNA (final concentration of 10 μg/ml); RAW264.7 cells continued to be incubated; the supernatant were collected four hours later for TNF-α detection; the supernatant were collected 12 hours later for IL-6 detection; the concentration of TNF-α and IL-6 of each group was detected according to the manufacturer's instructions of ELISA kit; result was expressed by means of mean±standard deviation.
17.1 Methods: RAW264.7 cells was diluted to 1×10^6/ml in DMEM supplemented with 10% (v/v) NCS, transferred into 96-well plates (200 μl per well) and cultured at 37° C. in a 5% CO2 humidified incubator for 4 h.
(1) Observation of dose-dependent effects: For the purpose of experiment a medium group and a KB treatment group were established; each group included three repeated wells; medium group was added with no reagent; KB treatment group was added with KB (final concentrations of 12.5, 25, 50, 100 and 200 μM) in each well, and subsequently added with LPS (final concentration of 100 ng/ml) or CpG DNA (final concentration of 10 μg/ml); cells were cultured at 37° C. in a 5% CO2 humidified incubator for 12 h; the supernatant was collected for further detection; operations were performed according to the manufacturer's instructions of ELISA kit, and the result was expressed by means of mean±standard deviation.
(2) Observation of time-dependent effects: For the purpose of experiment a medium group, a stimulation group and a KB treatment group were established; each group contained three repeated wells; medium group was added with no reagent; stimulation group was added with LPS and CpG DNA; KB treatment group was added with LPS and CpG DNA, in the meantime added with KB (final concentration of 200 μM); cells continued to be cultured at 37° C. in a 5% CO2 humidified incubator; the supernatant at time point of 0, 2, 4, 8, 12 and 24 h after stimulation was separately collected for further detection; detection of TNF-α concentration was performed according to the manufacturer's instructions of ELISA kit, and the result was expressed by means of mean±standard deviation.
18.1 Methods: RAW264.7 cells were diluted to 1×10^6/ml in DMEM supplemented with 10% (v/v) NCS, transferred into 96-well plates (200 μl per well) and cultured at 37° C. in a 5% CO2 humidified incubator for 4 h. […]
(An ELISA detects its analyte on a solid surface through an enzyme-linked reagent.)

The mark [2] stands for this setting: CpG DNA 10 μg/ml, dose-dependent.
The mark [3] stands for this setting: 50, 100 and 200 μM, CpG DNA 10 μg/ml, TNF-α at 4 h, IL-6 at 12 h.
Where [4] appears, read: 50, 100 and 200 μM, LPS 100 ng/ml, TNF-α at 4 h, IL-6 at 12 h.

With `O=C(CCc1ccc(O)c(O)c1)NCCCNCCCCNCCCNC(=O)CCc1ccc(O)c(O)c1` [KA, Kukoamine A], the “neutralizing activity with LPS” value in assay [1] is given as “significant neutralizing activity”. In addition, the “release of TNF-α induced by CpG DNA” value with RAW264.7 cells (setting [2]) is “inhibit the release of TNF-α”. The “release of TNF-α induced by LPS” value with RAW264.7 cells (LPS 100 ng/ml, dose-dependent) is reported as “inhibit the release of TNF-α”.
As for `NCCCN(CCCCNCCCNC(=O)CCc1ccc(O)c(O)c1)C(=O)CCc1ccc(O)c(O)c1` [KB, Kukoamine B], the “neutralizing activity with LPS” value in assay [1] is “significant neutralizing activity”. The IC50 in assay [1] was determined as 14.9 µM. For the same compound, in the assay on RAW264.7 cells (setting [2]), the “release of TNF-α induced by CpG DNA” value is reported as “inhibit the release of TNF-α”. Besides, the “release of TNF-α induced by LPS” value in the assay on RAW264.7 cells (LPS 100 ng/ml, dose-dependent) is listed as “inhibit the release of TNF-α”. In addition, the “release of TNF-α and IL-6 induced by CpG DNA” value with RAW264.7 cells (setting [3]) is “inhibit the release of TNF-α and IL-6”; in the assay with RAW264.7 cells (100 and 200 μM, CpG DNA 10 μg/ml, 24 h), “inhibit the release of TNF-α and IL-6”. The “release of TNF-α and IL-6 induced by LPS” value in the assay on RAW264.7 cells (setting [4]) was “inhibit the release of TNF-α and IL-6”; in the assay on RAW264.7 cells (100 and 200 μM, LPS 100 ng/ml, 24 h) it was “inhibit the release of TNF-α and IL-6”. In addition, in the assay with RAW264.7 cells (KB 12.5 μM, CpG DNA 10 μg/ml, 12 h, p>0.05), the “difference of RAW264.7 cells activation (TNF-α release) vs CpG DNA group” value was “no statistic significance”. Besides, the “difference of RAW264.7 cells activation (TNF-α release) vs LPS group” value in the assay on RAW264.7 cells (KB 12.5 μM, LPS 100 ng/ml, 12 h, p>0.05) was “no statistic significance”. Also, the “inhibitory activity on TNF-α release induced by CpG DNA” value in the assay with RAW264.7 cells (KB 25 μM and above, CpG DNA 10 μg/ml, 12 h, p<0.05 or p<0.01, dose-dependent) is reported as “significantly increased”. In the assay on RAW264.7 cells (KB 25 μM and above, LPS 100 ng/ml, 12 h, p<0.05 or p<0.01), the “inhibitory activity on TNF-α release induced by LPS” value is given as “significantly increased”. In addition, the “TNF-α release, KB added before vs at the time of stimulation” value in the assay on RAW264.7 cells (KB 200 μM added 40 or 20 min before vs at 0 min, LPS 200 ng/ml or CpG DNA 20 μg/ml) is on record as “no significant difference”. Also, the “TNF-α levels in supernatant at various time points, CpG DNA” value in the assay on RAW264.7 cells (KB 200 μM, CpG DNA 10 μg/ml, 0, 2, 4, 8, 12 and 24 h) was “all decreased”. In the assay with RAW264.7 cells (KB 200 μM, LPS 100 ng/ml, CpG DNA 10 μg/ml, selectivity panel), the “release of TNF-α and IL-6 induced by LPS and CpG DNA” value was “can only inhibit the release of TNF-α and IL-6 induced by LPS and CpG DNA”. The “TNF-α levels in supernatant at various time points, LPS” value with RAW264.7 cells (KB 200 μM, LPS 100 ng/ml, 0, 2, 4, 8, 12 and 24 h) is on record as “all decreased”. In addition, the “antagonistic effect on other irritant (Pam3CSK4, Poly I:C, TNF-α, IL-1β)” value with RAW264.7 cells (KB 200 μM, Pam3CSK4 10 μg/ml, Poly I:C 20 μg/ml, TNF-α 50 ng/ml, IL-1β 50 ng/ml) is on record as “no antagonistic effect on other irritant”. Also, the “release of TNF-α induced by LPS and CpG DNA under serum-free conditions” value with RAW264.7 cells (KB 50, 100 and 200 μM, serum-free DMEM, 12 h, dose-dependant) is “still inhibit the release of TNF-α”. In the assay on RAW264.7 cells (KB preincubated with LPS or CpG DNA for 20 min or 40 min before loading, 12 h), the “inhibition on TNF-α release induced by LPS and CpG DNA, KB preincubated with stimulus” value is recorded as “significantly enhanced”.
On to polymyxin B [PMB, reference compound], for which, in assay [1], the IC50 was 4.8 µM. The “release of TNF-α and IL-6 induced by CpG DNA” value in the assay with RAW264.7 cells (setting [3]) is “can only inhibit the release of TNF-α and IL-6 induced by LPS”. Also, the “release of TNF-α and IL-6 induced by LPS” value with RAW264.7 cells (setting [4]) is “inhibit the release of TNF-α and IL-6”.

Values taken from patent US10039729B2, “Use of kukoamine A and kukoamine B” (Tianjin Chase Sun Pharmaceutical Co., Ltd., priority 2010, dated 2018).
